IC50 data for 21 compounds are collected here from US20250382297A1, “INHIBITORS OF FGFR2 AND FGFR3 AND USES THEREOF” (Insilico Medicine IP Limited, priority 2022, published 2025).

The target of assay [1] is FGFR3 (Homo sapiens (Human), UniProt P22607). In words: FGFR biochemical assay (LanthaScreen TR-FRET kinase assay), FGFR3.
Procedure: (§1) Convert Ratio values to percent inhibition values (Percent inhibition=(max−sample Ratio)/(max−min)*100) where “min” means the Ratio of no enzyme control and “max” means the Ratio of DMSO control. • Data are analyzed and curve fitting is performed by XLFit Excel add-in version 5.4.0.8. The IC50 calculation equation is: Y=Bottom+(Top-Bottom)/(1+ (IC50/X)^HillSlope.
Assay [2] concerns the target FGFR1 (Homo sapiens (Human), UniProt P11362). In words: FGFR biochemical assay (LanthaScreen TR-FRET kinase assay), FGFR1.
Procedure: as §1
Assay [3] addresses FGFR2 (Homo sapiens (Human), UniProt P21802). In words: FGFR biochemical assay (LanthaScreen TR-FRET kinase assay), FGFR2.
Procedure: as §1
The mark [4] stands for this setting: read-out: FGFR2 IC50, * incubation at room temperature for 60 minutes before addition of substrate solution, ATP 22 μM, FGFR2 0.01 nM.
[5] abbreviates: read-out: FGFR3 IC50, incubation with enzyme at room temperature for 10 minutes before substrate, ATP 35 μM, FGFR3 0.1 nM.
The mark [6] stands for this setting: read-out: FGFR2 IC50, incubation with enzyme at room temperature for 10 minutes before substrate, ATP 22 μM, FGFR2 0.01 nM.
[7] abbreviates: read-out: FGFR3 IC50, * incubation at room temperature for 60 minutes before addition of substrate solution, ATP 35 μM, FGFR3 0.1 nM.

Molecules are shown by their SMILES. Read-outs that look alike come from different tables or passages of the source. Some results are limits rather than exact numbers.

Chain of FGFR2 (P21802 22-821): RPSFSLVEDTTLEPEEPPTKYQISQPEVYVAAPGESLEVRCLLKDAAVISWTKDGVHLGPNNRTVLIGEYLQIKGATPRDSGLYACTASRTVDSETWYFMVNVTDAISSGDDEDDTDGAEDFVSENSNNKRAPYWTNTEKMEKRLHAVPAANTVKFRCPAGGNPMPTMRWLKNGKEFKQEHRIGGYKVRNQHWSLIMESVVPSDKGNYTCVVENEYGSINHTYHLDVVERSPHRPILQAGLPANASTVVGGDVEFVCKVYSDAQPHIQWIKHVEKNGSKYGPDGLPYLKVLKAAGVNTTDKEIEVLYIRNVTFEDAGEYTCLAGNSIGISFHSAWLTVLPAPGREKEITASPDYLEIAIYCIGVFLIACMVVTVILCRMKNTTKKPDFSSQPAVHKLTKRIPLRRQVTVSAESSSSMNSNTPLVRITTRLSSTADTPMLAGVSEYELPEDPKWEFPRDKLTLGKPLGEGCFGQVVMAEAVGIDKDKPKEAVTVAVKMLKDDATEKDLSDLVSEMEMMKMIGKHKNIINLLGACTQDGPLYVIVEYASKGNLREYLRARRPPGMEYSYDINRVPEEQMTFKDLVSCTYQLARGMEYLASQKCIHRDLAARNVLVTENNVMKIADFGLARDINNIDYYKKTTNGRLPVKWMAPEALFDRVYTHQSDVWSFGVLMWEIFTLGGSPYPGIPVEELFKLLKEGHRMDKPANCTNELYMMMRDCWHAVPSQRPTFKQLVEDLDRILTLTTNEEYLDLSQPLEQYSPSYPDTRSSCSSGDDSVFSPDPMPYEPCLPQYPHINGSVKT
Chain of FGFR1 (P11362 22-822): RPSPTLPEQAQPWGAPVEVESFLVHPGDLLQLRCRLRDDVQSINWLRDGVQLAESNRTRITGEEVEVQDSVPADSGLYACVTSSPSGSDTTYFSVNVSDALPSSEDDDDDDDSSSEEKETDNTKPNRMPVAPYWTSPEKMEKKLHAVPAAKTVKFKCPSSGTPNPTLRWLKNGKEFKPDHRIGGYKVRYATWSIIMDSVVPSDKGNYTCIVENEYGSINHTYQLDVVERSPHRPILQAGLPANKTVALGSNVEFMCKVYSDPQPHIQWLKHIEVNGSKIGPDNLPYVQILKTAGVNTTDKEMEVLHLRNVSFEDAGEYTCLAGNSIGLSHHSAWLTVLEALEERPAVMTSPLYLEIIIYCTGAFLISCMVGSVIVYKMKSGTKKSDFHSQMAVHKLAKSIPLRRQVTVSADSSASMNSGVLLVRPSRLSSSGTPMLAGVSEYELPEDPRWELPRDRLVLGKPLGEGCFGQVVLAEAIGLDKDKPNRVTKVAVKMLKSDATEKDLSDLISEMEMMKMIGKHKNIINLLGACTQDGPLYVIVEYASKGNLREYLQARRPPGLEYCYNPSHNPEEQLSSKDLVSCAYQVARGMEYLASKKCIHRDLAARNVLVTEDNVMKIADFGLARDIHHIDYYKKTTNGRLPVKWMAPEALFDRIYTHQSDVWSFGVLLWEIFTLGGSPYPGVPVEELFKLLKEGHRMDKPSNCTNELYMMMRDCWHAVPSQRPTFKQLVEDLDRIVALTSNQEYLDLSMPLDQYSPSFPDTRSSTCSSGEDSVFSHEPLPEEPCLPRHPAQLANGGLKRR
Chain of FGFR3 (P22607 23-806): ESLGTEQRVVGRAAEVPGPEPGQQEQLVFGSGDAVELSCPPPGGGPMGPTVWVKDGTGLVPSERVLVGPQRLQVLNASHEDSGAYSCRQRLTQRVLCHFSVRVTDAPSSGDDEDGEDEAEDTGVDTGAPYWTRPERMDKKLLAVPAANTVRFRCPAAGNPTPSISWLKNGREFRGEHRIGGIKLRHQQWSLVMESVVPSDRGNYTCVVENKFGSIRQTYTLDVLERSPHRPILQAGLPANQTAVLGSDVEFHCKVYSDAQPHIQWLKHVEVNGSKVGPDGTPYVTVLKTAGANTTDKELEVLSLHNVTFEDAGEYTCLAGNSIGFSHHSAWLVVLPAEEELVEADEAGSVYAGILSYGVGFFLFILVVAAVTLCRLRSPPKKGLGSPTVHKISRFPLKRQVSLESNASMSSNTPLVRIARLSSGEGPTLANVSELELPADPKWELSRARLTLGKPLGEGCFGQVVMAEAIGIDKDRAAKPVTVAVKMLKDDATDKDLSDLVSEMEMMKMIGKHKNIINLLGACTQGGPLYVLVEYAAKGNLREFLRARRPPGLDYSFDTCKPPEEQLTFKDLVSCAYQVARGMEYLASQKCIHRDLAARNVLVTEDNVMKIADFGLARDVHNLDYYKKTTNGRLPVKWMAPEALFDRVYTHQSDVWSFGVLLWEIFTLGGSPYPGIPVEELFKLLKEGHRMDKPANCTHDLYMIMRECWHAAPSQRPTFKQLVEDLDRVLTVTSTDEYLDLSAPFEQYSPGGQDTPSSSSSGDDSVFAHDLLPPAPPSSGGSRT

For the compound `C=C(F)C(=O)Nc1ccc(-c2c(-c3ccc(C(=O)NCC4(F)COC4)cc3)c(C(N)=O)c3cnc(C)cn23)cc1` [Example 63, 6-(4-(2-fluoroacrylamido)phenyl)-7-(4-(((3-fluorooxetan-3-yl)methyl)carbamoyl)phenyl)-3-methylpyrrolo[1,2-a]pyrazine-8-carboxamide], the IC50 in assay [1] was 10 to 100 nM; in assay [2], 10 to 100 nM; in assay [3] (setting [4]), below 10 nM.
Consider `C=CC(=O)Nc1ccc(-c2c(-c3ccc(C(=O)NCC4(F)COC4)cc3)c(C(N)=O)c3cnc(C)cn23)cc1` [Example 64, 6-(4-acrylamidophenyl)-7-(4-(((3-fluorooxetan-3-yl)methyl)carbamoyl)phenyl)-3-methylpyrrolo[1,2-a]pyrazine-8-carboxamide], for which the 50% inhibitory concentration (IC50) was below 10 nM in assay [1] (setting [5]), 10 to 100 nM in assay [2] and below 10 nM in assay [3] (setting [6]).
`CC#CC(=O)Nc1ccc(-c2c(-c3ccc(C(=O)NCC4(F)COC4)cc3)c(C(N)=O)c3cnc(C)cn23)cc1` [Example 65, 6-(4-(but-2-ynamido)phenyl)-7-(4-(((3-fluorooxetan-3-yl)methyl)carbamoyl)phenyl)-3-methylpyrrolo[1,2-a]pyrazine-8-carboxamide]: the 50% inhibitory concentration (IC50) was 100 to 1000 nM in assay [1], 100 to 1000 nM in assay [2] and 10 to 100 nM in assay [3].
`C=CC(=O)N1CC2(CC=C(c3c(-c4ccc(Oc5nccc(C)n5)cc4)c(C(N)=O)c4cnc(C)cn34)CC2)C1` [Example 70, 6-(2-acryloyl-2-azaspiro[3.5]non-6-en-7-yl)-3-methyl-7-(4-((4-methylpyrimidin-2-yl)oxy)phenyl)pyrrolo[1,2-a]pyrazine-8-carboxamide]: the half-maximal inhibitory concentration (IC50) in assay [1], in assay [2] and in assay [3] was 100 to 1000 nM throughout.
Consider `C=C(F)C(=O)N1CCc2cc(-c3c(-c4ccc(Oc5nccc(C)n5)c(F)c4)c(C(N)=O)c4cnc(C)cn34)ccc21` [Example 72, 7-(3-fluoro-4-((4-methylpyrimidin-2-yl)oxy)phenyl)-6-(1-(2-fluoroacryloyl)indolin-5-yl)-3-methylpyrrolo[1,2-a]pyrazine-8-carboxamide], for which the IC50 was 10 to 100 nM in assay [1], 100 to 1000 nM in assay [2] and below 10 nM in assay [3] (setting [4]).
In the case of `C=C(F)C(=O)N1CCc2cc(-c3c(-c4ccc(Oc5nccc(C)n5)c(F)c4)c(C(N)=O)c4cnc(C)cn34)c(F)cc21` [Example 73, 6-(6-fluoro-1-(2-fluoroacryloyl)indolin-5-yl)-7-(3-fluoro-4-((4-methylpyrimidin-2-yl)oxy)phenyl)-3-methylpyrrolo[1,2-a]pyrazine-8-carboxamide], the IC50 in assay [1] (setting [7]) was below 10 nM; in assay [2] it was 10 to 100 nM; in assay [3] (setting [4]) it was below 10 nM.
With `C=C(F)C(=O)Nc1ccc(-c2c(-c3cccc(C(=O)NC)c3)c(C(N)=O)c3cnc(C)cn23)c(F)c1` [Example 75, 6-(2-fluoro-4-(2-fluoroacrylamido)phenyl)-3-methyl-7-(3-(methylcarbamoyl)phenyl)pyrrolo[1,2-a]pyrazine-8-carboxamide], the IC50 in assay [1], in assay [2] and in assay [3] was 100 to 1000 nM each time.
Consider `C=CC(=O)Nc1ccc(-c2c(-c3ccc(Oc4cccc(C)n4)cc3)c(C(N)=O)c3cnc(C4COC4)cn23)cc1` [Example 76, 6-(4-acrylamidophenyl)-7-(4-((6-methylpyridin-2-yl)oxy)phenyl)-3-(oxetan-3-yl)pyrrolo[1,2-a]pyrazine-8-carboxamide], for which the results for the IC50 in assay [1] (setting [5]), in assay [2] and in assay [3] (setting [6]) were below 10 nM, 10 to 100 nM and below 10 nM, respectively.
Take `C=CC(=O)Nc1ccc(-c2c(-c3ccc(Oc4cccc(C)n4)cc3)c(C(N)=O)c3cnc(C#N)cn23)cc1` [Example 77, 6-(4-acrylamidophenyl)-3-cyano-7-(4-((6-methylpyridin-2-yl)oxy)phenyl)pyrrolo[1,2-a]pyrazine-8-carboxamide]: the IC50 in assay [1] was 100 to 1000 nM; in assay [2] (read-out: FGFR1 IC50, incubation with enzyme at room temperature for 10 minutes before substrate, ATP 28 μM, FGFR1 0.01 nM), above 1000 nM; in assay [3], 10 to 100 nM.
As to `C=CC(=O)Nc1ccc(-c2c(-c3ccc(Oc4nccc(C)n4)c(F)c3)c(C(N)=O)c3cnc(CO)cn23)cc1` [Example 78, 6-(4-acrylamidophenyl)-7-(3-fluoro-4-((4-methylpyrimidin-2-yl)oxy)phenyl)-3-(hydroxymethyl)pyrrolo[1,2-a]pyrazine-8-carboxamide], the IC50 was below 10 nM in assay [1] (setting [5]), 100 to 1000 nM in assay [2] and below 10 nM in assay [3] (setting [6]).
For `Cc1ccnc(Oc2ccc(-c3c(C(N)=O)c4cnc(CO)cn4c3-c3ccc(NC(=O)/C=C/CN(C)C)cc3)cc2)n1` [Example 79, (E)-6-(4-(4-(dimethylamino)but-2-enamido)phenyl)-3-(hydroxymethyl)-7-(4-((4-methylpyrimidin-2-yl)oxy)phenyl)pyrrolo[1,2-a]pyrazine-8-carboxamide], the IC50 is 10 to 100 nM in assay [1], 10 to 100 nM in assay [2] and below 10 nM in assay [3] (setting [6]).
With `C=C(F)C(=O)Nc1ccc(-c2c(-c3ccc(Oc4nccc(C)n4)cc3)c(C(N)=O)c3cnc(CCO)cn23)cc1` [Example 80, 6-(4-(2-fluoroacrylamido)phenyl)-3-(2-hydroxyethyl)-7-(4-((4-methylpyrimidin-2-yl)oxy)phenyl)pyrrolo[1,2-a]pyrazine-8-carboxamide], the IC50 was 10 to 100 nM in assay [1], 100 to 1000 nM in assay [2] and below 10 nM in assay [3] (setting [4]).
Take `C=C(F)C(=O)Nc1ccc(-c2c(-c3ccc(Oc4nccc(C)n4)cc3)c(C(N)=O)c3cnc(CCO)cn23)c(F)c1` [Example 81, 6-(2-fluoro-4-(2-fluoroacrylamido)phenyl)-3-(2-hydroxyethyl)-7-(4-((4-methylpyrimidin-2-yl)oxy)phenyl)pyrrolo[1,2-a]pyrazine-8-carboxamide]: the results for the IC50 in assay [1] (setting [7]), in assay [2] and in assay [3] (setting [4]) were below 10 nM, 10 to 100 nM and below 10 nM, respectively.
As to `C=C(F)C(=O)Nc1ccc(-c2c(-c3ccc(Oc4nccc(C)n4)c(F)c3)c(C(N)=O)c3cnc(CCO)cn23)c(F)c1` [Example 82, 7-(3-fluoro-4-((4-methylpyrimidin-2-yl)oxy)phenyl)-6-(2-fluoro-4-(2-fluoroacrylamido)phenyl)-3-(2-hydroxyethyl)pyrrolo[1,2-a]pyrazine-8-carboxamide], the half-inhibitory concentration (IC50) in assay [1] (setting [7]) was below 10 nM; in assay [2], 10 to 100 nM; in assay [3] (setting [4]) it was below 10 nM.
For the compound `C=C(F)C(=O)Nc1ccc(-c2c(-c3ccc(Oc4nccc(C)n4)cc3)c(C(N)=O)c3cnc(NC(C)=O)cn23)cc1` [Example 83, 3-acetamido-6-(4-(2-fluoroacrylamido)phenyl)-7-(4-((4-methylpyrimidin-2-yl)oxy)phenyl)pyrrolo[1,2-a]pyrazine-8-carboxamide], the concentration for half-maximal inhibition (IC50) is 10 to 100 nM in assay [1], 100 to 1000 nM in assay [2] and below 10 nM in assay [3] (setting [4]).
Regarding `C=CC(=O)Nc1ccc(-c2c(-c3ccc(Oc4cccc(C)n4)cc3)c(C(N)=O)c3ccnc(C)n23)cc1` [Example 84, 7-(4-acrylamidophenyl)-1-methyl-6-(4-((6-methylpyridin-2-yl)oxy)phenyl)pyrrolo[1,2-c]pyrimidine-5-carboxamide], the concentration for half-maximal inhibition (IC50) in assay [1] is 10 to 100 nM; in assay [2] it was 100 to 1000 nM; in assay [3] (setting [6]) it was below 10 nM.
Take `C=C(F)C(=O)Nc1ccc(-c2c(-c3ccc(Oc4nccc(C)n4)c(F)c3)c(C(N)=O)c3cc(C)ncn23)cc1` [Example 85, 6-(3-fluoro-4-((4-methylpyrimidin-2-yl)oxy)phenyl)-7-(4-(2-fluoroacrylamido)phenyl)-3-methylpyrrolo[1,2-c]pyrimidine-5-carboxamide]: the values for the concentration for half-maximal inhibition (IC50) in assay [1], in assay [2] and in assay [3] (setting [4]) were 10 to 100 nM, 100 to 1000 nM and below 10 nM, respectively.
`C=C(F)C(=O)Nc1ccc(-c2c(-c3ccc(Oc4nccc(C)n4)c(F)c3)c(C(N)=O)c3cc(-c4cnn(C)c4)ncn23)cc1` [Example 86, 6-(3-fluoro-4-((4-methylpyrimidin-2-yl)oxy)phenyl)-7-(4-(2-fluoroacrylamido)phenyl)-3-(1-methyl-1H-pyrazol-4-yl)pyrrolo[1,2-c]pyrimidine-5-carboxamide]: the figures for the 50% inhibitory concentration (IC50) in assay [1], in assay [2] and in assay [3] (setting [4]) were 10 to 100 nM, 10 to 100 nM and below 10 nM, respectively.
In the case of `C=C(F)C(=O)Nc1ccc(-c2c(-c3ccc(Oc4nccc(C)n4)c(F)c3)c(C(N)=O)c3cc(C)cnn23)cc1` [Example 87, 6-(3-fluoro-4-((4-methylpyrimidin-2-yl)oxy)phenyl)-7-(4-(2-fluoroacrylamido)phenyl)-3-methylpyrrolo[1,2-b]pyridazine-5-carboxamide], the IC50 is 10 to 100 nM in assay [1], 10 to 100 nM in assay [2] and below 10 nM in assay [3] (setting [4]).
Take `C=C(F)C(=O)Nc1ccc(-c2c(-c3ccc(Oc4nccc(C)n4)c(F)c3)c(C(N)=O)c3cc(-c4cnn(C)c4)ncn23)c(F)c1` [Example 91, 6-(3-fluoro-4-((4-methylpyrimidin-2-yl)oxy)phenyl)-7-(2-fluoro-4-(2-fluoroacrylamido)phenyl)-3-(1-methyl-1H-pyrazol-4-yl)pyrrolo[1,2-c]pyrimidine-5-carboxamide]: the IC50 was below 10 nM in assay [1] (setting [7]), 10 to 100 nM in assay [2] and below 10 nM in assay [3] (setting [4]).
`C=C(F)C(=O)Nc1ccc(-c2c(-c3ccc(Oc4nccc(C)n4)c(F)c3)c(C(N)=O)c3cc(-c4cnn(C)c4)ncn23)c(C)c1` [Example 92, 6-(3-fluoro-4-((4-methylpyrimidin-2-yl)oxy)phenyl)-7-(4-(2-fluoroacrylamido)-2-methylphenyl)-3-(1-methyl-1H-pyrazol-4-yl)pyrrolo[1,2-c]pyrimidine-5-carboxamide]: the half-inhibitory concentration (IC50) in assay [1] (setting [7]) was below 10 nM; in assay [2] it was 10 to 100 nM; in assay [3] (setting [4]), below 10 nM.
